The numbers were not newly measured in patent US12237054B2, “Model for high-throughput screening of endocrine disruptor and method for screening same” (Nanjing University, priority 2018, dated 2025), which cites them from elsewhere.

The data set deals with HEK293T. To be noted: standardized Activity value, data from public databases (ToxCast/Tox21, ChEMBL).

As for `CC(C)C(=O)Nc1ccc([N+](=O)[O-])c(C(F)(F)F)c1` [Flutamide], the cytotoxicity experimental value is recorded as 4.4.
